The NIST ThermoML archive (doi:10.1016/j.tca.2011.06.020)

Experiments:
[1] = 101 kPa, Liquid; for speed of sound: Sing-around technique in a fixed-path interferometer; for mass density: Vibrating tube method
[2] = xn = mol fraction of the nth substance listed; settings: 101 kPa, Liquid; for speed of sound: Sing-around technique in a fixed-path interferometer; for mass density: Vibrating tube method

Cc1ccccc1N [2-methylaniline]
[1]
Settings | mass density [kg/m3] | speed of sound [m/s]
298.15 K | 994.351 | 1602.6
303.15 K | 990.224 | 1577.8
308.15 K | 986.069 | 1558.4

CNC=O [N-methylformamide]
[1]
Settings | mass density [kg/m3] | speed of sound [m/s]
298.15 K | 999.004 | 1432.9
303.15 K | 994.653 | 1417.7
308.15 K | 990.302 | 1402.5

CNC=O [N-methylformamide] + Cc1ccccc1N
[2], x2 = 0
Settings | mass density [kg/m3] | speed of sound [m/s]
298.15 K | 999.004 | 1432.9
303.15 K | 994.653 | 1417.7
308.15 K | 990.302 | 1402.5

C1CCOCC1 [tetrahydropyran]
[1]
Settings | mass density [kg/m3] | speed of sound [m/s]
298.15 K | 879.136 | 1269.9
303.15 K | 873.992 | 1246.8
308.15 K | 868.831 | 1224.5

C1CCOCC1 [tetrahydropyran] + CNC=O
[2], x1 = 1
Settings | mass density [kg/m3] | speed of sound [m/s]
298.15 K | 879.136 | 1269.9
303.15 K | 873.992 | 1246.8
308.15 K | 868.831 | 1224.5

C1CCOCC1 [tetrahydropyran] + Cc1ccccc1N
[2], x2 = 0
Settings | mass density [kg/m3] | speed of sound [m/s]
298.15 K | 879.136 | 1269.9
303.15 K | 873.992 | 1246.8
308.15 K | 868.831 | 1224.5
